Source: US10314816B2, “Antimicrobial compounds, compositions and methods of use thereof” (Wisconsin Alumni Research Foundation, priority 2012, dated 2019)

Legend:
[1] = test system: B. subtilis 168; experiment: MIC of bacterial growth, macrodilution (Table 2); assay type: cell-based; conditions: Bacillus subtilis
Procedure: Bacterial strains and growth conditions. Luria-Bertani (LB) media (10 g/L tryptone, 10 g/L NaCl, 5 g/L yeast extract, pH 7.2) was used to grow B. subtilis 168, S. aureus FRI100, and P. aeruginosa K1115 strains. For P. aeruginosa PAO1 and K1119 strains and two E. coli BW25113 strains, M8 minimal media (241 mg/L MgSO4, 4 mg/L glucose, 5 mg/L casamino acids, 12.8 g/L Na2HPO4.7H2O, 3 g/L KH2PO4, and 0.5 g/L NaCl) was used. PYE media (2 g/L peptone, 1 g/L yeast extract, 0.8 mM MgSO4, and 0.5 mM CaCl2) was used for culturing C. crescentus cells at 30° C. All cultures were grown at 37° C., except for C. crescentus (30° C.). All cultures were grown while shaking at 200 rpm.
Determination of the minimum inhibitory concentration (MIC) of bacterial growth. The MIC of various organisms in liquid media was determined using the macrodilution method according to the NCCLS guidelines. For the starting inoculum, cultures were diluted to contain approximately 5×10^5 cells/mL in growth media. To create a two-fold dilution series for the macrodilution technique, each compound was added to the first culture tube (4 mL total volume) at the highest concentration. 2 mL of this culture was diluted into an equal volume of inoculated media (a two-fold dilution). The final volume for each culture was 2 mL.

[2] = test system: S. aureus FRI 100; experiment: Minimum biofilm eradication concentration (MBEC); assay type: cell-based, Staphylococcus aureus; conditions: S. aureus FRI 100 biofilm
Procedure: Determination of the minimum biofilm inhibitory concentration of growth (bMIC) and biofilm eradication concentration (MBEC). Overnight cultures of C. crescentus and S. aureus were grown and diluted 100-fold into appropriate nutrient media. Aliquots of the diluted suspension were transferred into wells of 96-well plates (150 μL/well). 2-fold serial dilutions were performed for compound-containing wells. For every experiment, three replicates for each compound concentration tested were included. After transferring aliquots of the suspension, the plates were closed with specialized lids that have protruding pins (Nunc STP System), and the plates were sealed using Parafilm®. The plates were incubated in a static incubator at 30° C. (C. crescentus) or 37° C. (S. aureus) for 24 hours. After the cells had formed biofilms on the surface of the pins, the pins were rinsed by dipping them in M2 (C. crescentus) or PBS (S. aureus) solutions. To rinse the pins, clean, sterile 96-well plates were used (aliquots of 200 μL/well); each rinse lasted 10 sec. After washing away planktonic cells loosely bound to biofilms, the pins were inserted into a 96-well plate that was pre-aliquoted with nutrient media containing antibiotics (2-fold dilutions, a final volume of 150 μL/well). The plates were sealed with Parafilm®, and incubated for 17 hours, and the bMIC was measured at the end of the incubation by visual inspection. After the bMIC run, the rinse steps were repeated to remove planktonic cells, and the pins were inserted into a 96-well plate that was pre-aliquoted with drug-free nutrient media (aliquots of 150 μL/well). The plates were sealed with Parafilm®, incubated for 24 hours, and the MBEC was measured at the end of the incubation by visual inspection.
After performing bMIC experiments, biofilms growing on the pins of the lid were transferred to nutrient media devoid of antibiotics to measure the minimum concentration of antibiotic that prevented planktonic growth from biofilms in antibiotic-free nutrient media (MBEC). […]

[3] = test system: C. crescentus CB15N; experiment: Minimum stationary-bactericidal concentration (MSC); assay type: cell-based, Caulobacter crescentus; conditions: for MSC: C. crescentus CB15N, stationary cells, 24 hours
Procedure: Determination of the Minimum Stationary-Bactericidal Concentration.
Cultures of C. crescentus (24 hour incubation) and S. aureus cells (5 day incubation) were grown from single colonies. Cells were collected by centrifugation (8500 rpm for 2.5 minutes) and re-suspended in M2 salt solution (for C. crescentus; 1.74 g/L Na2HPO4, 1.06 g/L KH2PO4, and 0.5 g/L NH4Cl) or phosphate-buffered saline (for S. aureus; PBS, Fisher Scientific). The centrifugation and re-suspension was repeated two more times. After the repeated washing steps, the cell suspension was diluted 10-fold to achieve approximately 10^8 cells/mL. Aliquots of the diluted cell suspension were transferred into wells of a 96-well plate (100 μL/well), and 2-fold serial dilutions were performed to test a range of antibiotic concentrations. The plate was sealed with Parafilm® and incubated for 24 hours at room temperature in the dark. After incubation, 50 μl was removed from each well to spread on nutrient agar plates (1.5% agar in PYE for C. crescentus, and LB for S. aureus). The colonies on each plate were counted after growing the cells for 1-2 days. For determining the kinetics of bactericidal activity of DCAP on stationary cultures, the washed cells were diluted by 100-fold in appropriate solutions and tested using a single concentration of the compound while including a DMSO control sample. Cell suspensions were kept in closed microcentrifuge tubes instead of the wells of 96-well plates. 100 μL of the suspensions was removed for plating at each time point. All MSC experiments were performed in static conditions.
In addition to its activity against actively growing bacteria, DCAP kills cells in stationary phase (Table 3). This property was tested against C. crescentus and S. aureus. […] To ensure that bacteria were deprived of nutrients, the cells were grown into late stationary phase (i.e., 24 hours for C. crescentus and 5 days for S. aureus). These cells were collected, suspended in isotonic solutions devoid of amino acids or sugars, and treated with a small molecule (DMSO, DCAP, CCCP or ampicillin). Cell viability was measured over time by plating culture aliquots on non-selective, solid growth media. The minimum concentration of antibiotic required to completely eliminate colony formation was designated as the minimum stationary-bactericidal concentration (MSC). […] CCCP inhibited the proliferation of C. crescentus cells regardless of their physiological status. However, the MSC of CCCP for S. aureus was >300-fold higher than the MIC. This dramatic decrease in the effectiveness of CCCP in S. aureus may be due to changes in membrane composition as cells adjust their metabolism in nutrient-deprived conditions.

| Structure (SMILES) | MIC [1] | MBEC [2] | Minimum time required to obtain the MSC ([3]; C. crescentus) | MSC [3] |
| --- | --- | --- | --- | --- |
| OCC(CO)(CO)NCC(O)Cn1c2ccc(Cl)cc2c2cc(Cl)ccc21 (stereo not shown) [DCAP, 2-((3-(3,6-dichloro-9H-carbazol-9-yl)-2-hydroxypropyl)amino)-2-(hydroxymethyl)propane-1,3-diol] | 32 µM | >200 µM | 2 h | 20 µM |
| N#CC(C#N)=NNc1cccc(Cl)c1 [CCCP, carbonyl cyanide m-chlorophenyl hydrazone] | 10 µM | 80 µM | – | 2.5 µM |
